Data taken from ChEMBL document CHEMBL1201862, “PubChem BioAssay data set” (2004).
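Step 1: Grow cells in 96-well plates. Step 2: Expose to compound for 48 hours at 5 concentrations. Step 3: Interpolate endpoints linearly; if unreached, use highest concentration. GI50: concentration for 50% inhibition of growth.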 Calls of active or inactive are those of the source. No stated cut-off is given here; in the data, active = GI50 up to about 1.1 µM and inactive = higher.

Columns and labels:
Assay in all cases: growth of human tumour cells (NCI), 48 h
HCC 2998 = test system: HCC 2998
SN12C = test system: SN12C
LOX IMVI = test system: LOX IMVI
ACHN = test system: ACHN
NCI-H23 = test system: NCI-H23
OVCAR-8 = test system: OVCAR-8
RPMI-8226 = test system: RPMI-8226
OVCAR-4 = test system: OVCAR-4
UACC-257 = test system: UACC-257
HCT-116 = test system: HCT-116
CAKI-1 = test system: CAKI-1
NCI-H522 = test system: NCI-H522
HCT-15 = test system: HCT-15
SNB-19 = test system: SNB-19
SR = test system: SR
SK-MEL-2 = test system: SK-MEL-2
SK-OV-3 = test system: SK-OV-3

SMILES | GI50 (HCC 2998) | GI50 (SN12C) | GI50 (LOX IMVI) | GI50 (ACHN) | GI50 (NCI-H23) | GI50 (OVCAR-8) | GI50 (RPMI-8226) | GI50 (OVCAR-4) | GI50 (UACC-257) | GI50 (HCT-116) | GI50 (CAKI-1) | GI50 (NCI-H522) | GI50 (HCT-15) | GI50 (SNB-19) | GI50 (SR) | GI50 (SK-MEL-2) | GI50 (SK-OV-3)
COC1CC(OS(=O)(=O)c2ccc([N+](=O)[O-])cc2)C(OC(=O)c2ccccc2)C(C)O1 (stereo unspecified) | > 100 µM (inactive) | > 100 µM (inactive) | > 100 µM (inactive) | > 100 µM (inactive) | > 100 µM (inactive) | > 100 µM (inactive) | > 100 µM (inactive) | 49.9 µM (inactive) | > 100 µM (inactive) | > 100 µM (inactive) | > 100 µM (inactive) | > 100 µM (inactive) | > 100 µM | > 100 µM (inactive) | > 100 µM (inactive) |  | 
NCCn1ccc(NC(c2ccccc2)(c2ccccc2)c2ccccc2)nc1=O | 18 µM (inactive) | 20.3 µM (inactive) | 16.4 µM (inactive) | 54.7 µM (inactive) | > 10 µM (inactive) | 39.8 µM (inactive) | 18.6 µM (inactive) | 36.3 µM (inactive) | 19.5 µM (inactive) | 18.2 µM (inactive) |  | 18.1 µM (inactive) | > 100 µM | > 10 µM (inactive) | 19.4 µM (inactive) | 18.7 µM (inactive) | 
CCOC(=O)c1cccnc1C(OC(C)=O)OC(C)=O | > 100 µM (inactive) | > 100 µM (inactive) | 70 µM (inactive) | 74.8 µM (inactive) | > 100 µM (inactive) | > 100 µM (inactive) |  | > 100 µM (inactive) | > 100 µM (inactive) | > 100 µM (inactive) | > 100 µM (inactive) | > 100 µM (inactive) | > 100 µM | > 100 µM (inactive) | > 100 µM (inactive) | > 100 µM (inactive) | > 100 µM (inactive)
COc1ccc(C2S/C(=C\c3ccccc3O)C(=O)N2NC(=O)Cc2ccccc2)cc1 (stereo unspecified) |  | > 100 µM (inactive) | > 100 µM (inactive) | > 100 µM (inactive) | > 100 µM (inactive) | 83.2 µM (inactive) | 48.5 µM (inactive) | > 100 µM (inactive) | > 100 µM (inactive) | 38.2 µM (inactive) | > 100 µM (inactive) | > 100 µM (inactive) | > 100 µM |  | 37.4 µM (inactive) | > 100 µM (inactive) | > 100 µM (inactive)
COc1ccc(C2NC3=C(CCCC3)N2)cc1 | > 100 µM (inactive) | > 100 µM (inactive) | 56.4 µM (inactive) | > 100 µM (inactive) | 67 µM (inactive) | > 100 µM (inactive) | > 100 µM (inactive) | > 100 µM (inactive) | > 100 µM (inactive) | 64.9 µM (inactive) |  | 40.2 µM (inactive) | 44.8 µM |  | 44.8 µM (inactive) | 43.8 µM (inactive) | 42.6 µM (inactive)
CCOC(=O)c1oc2c(OC)ccc3c2c1CCC3 | > 100 µM (inactive) | > 100 µM (inactive) | > 100 µM (inactive) | > 100 µM (inactive) | 96.4 µM (inactive) | > 100 µM (inactive) | > 100 µM (inactive) | > 100 µM (inactive) | 0.404 µM (active) |  |  | > 100 µM (inactive) | > 100 µM | > 100 µM (inactive) | > 100 µM (inactive) | > 100 µM (inactive) | > 100 µM (inactive)
CCOC(=O)C1S/C(=N\c2ccccc2)N=C1C (stereo unspecified) | > 100 µM (inactive) | > 100 µM (inactive) | 47.3 µM (inactive) | 39.7 µM (inactive) | 67.3 µM (inactive) | > 100 µM (inactive) | 51.2 µM (inactive) | 68.7 µM (inactive) | > 100 µM (inactive) | > 100 µM (inactive) |  | 44.7 µM (inactive) | 55.5 µM | > 100 µM (inactive) | 45.3 µM (inactive) | > 100 µM (inactive) | 
